Results on 10 molecules are retold here after US10758519B2, “UCP-1 expression promoter” (Kao Corporation, priority 2014, dated 2020).

The structures appear in SMILES notation. Marks after values point to notes of the source that are not given here.

The subject of assay [1] is UCP-1. The experiment in a line: UCP-1 expression-inducing action in rat preadipocytes (quantitative PCR), Example B1. Format: cell-based. As to the method:
The abdominal subcutaneous fat tissues of a Wistar-rat (male, 8 weeks old) were chopped with a surgical knife in a collagenase buffer (0.05% collagenase+4% BSA in Hank's buffer), and then, the chopped tissues were incubated at 37° C. for 15 minutes while shaken. After addition of an appropriate amount of a medium (high glucose DMEM (Invitrogen Corp.)+10% fetal, bovine serum (FBS) (AusGeneX PTY LTD.)+100 units/mL penicillin+[…] streptomycin (Invitrogen Corp.)), the obtained cell suspension was centrifuged at 1,000 rpm for 5 minutes. The supernatant was removed to obtain pellets (SVF: stromal vascular fraction). The SVF was suspended in a DMEM (+10% FBS+penicillin+streptomycin) medium, inoculated to a T-175 flask, cultured for 4 days, and used as preadipocytes.
The preadipocytes were inoculated to a 12-well plate coated with type I collagen. On the next day, the PPARγ activator (rosiglitazone (Rosi) (Wako Pure Chemical Industries, Ltd.), final concentration: 1 μM) and/or the Smad3 inhibitor (SIS3 (Sigma-Aldrich Corp.), final concentration: 10 μM) was added thereto. After culture for 7 days, the β3 adrenaline receptor activator (norepinephrine (NE) (Wako Pure Chemical Industries, Ltd.), final concentration: 1 μM)) was added thereto, and the cells were cultured for 2 hours, then washed with PBS, and recovered.
Total RNA was extracted according to a standard method using RNeasy Mini Kit (Qiagen N.V.). The total RNA was reverse-transcribed according to a standard method using High Capacity RNA-to-cDNA Kit (Applied Biosystems by Life Technologies).
Quantitative PCR was performed with the obtained cDNA (30 ng/well) as a template using 7500 Fast Real-Time PCR System (Applied Biosystems by Life Technologies). The expression level of each gene was corrected with a 36B4 gene expression level as an internal standard. Control excluded the agents described above.
The preadipocytes (n=3) obtained as described above were inoculated to a 12-well plate coated with type I collagen. On the next day, the PPARγ activator (rosiglitazone (Rosi) (Wako Pure Chemical Industries, Ltd.) or pioglitazone (Wako Pure Chemical Industries, Ltd.); 1 μM) and the Smad3 inhibitor (SIS3 (Sigma-Aldrich Corp.), 10 μM) were added thereto. After culture for 7 days, the cells were treated with the β3 adrenaline receptor activator (norepinephrine (Wako Pure Chemical Industries, Ltd.), 1 μM) for 2 hours and then recovered.
The preadipocytes were collected by trypsin treatment and transfected with siRNA against each Smad by electroporation using Neon transfection System. (Invitrogen Corp.). The preadipocytes (3×10^5 cells) were transfected with 50 pmol of the siRNA (Life Technologies) under conditions of 1150 V/20 ms/3 pulses, suspended in a DMEM (+10% FBS+100 units/mL penicillin+[…] streptomycin) medium, and then inoculated to a 12-well plate coated with type I collagen. After 6 hours, rosiglitazone was added thereto, and the cells were cultured with the medium replaced with fresh one every day. Four days after the inoculation, the cells were treated with norepinephrine for 2 hours and then recovered, and the UCP-1 expression level was analyzed by using RT-PCR. For a control, rosiglitazone, SIS3, and norepinephrine were added in the same approach as above to cells transfected with random siRNA, followed by analysis.
The preadipocytes (n=3) obtained as described above were inoculated to a 12-well plate coated with type I collagen. On the next day, the PPARγ activator (rosiglitazone (Rosi) (Wako Pure Chemical Industries, Ltd.), 10 μM) and the Smad3 inhibitor (SIS3 (Sigma-Aldrich Corp.) or SB431542 (Sigma-Aldrich Corp.); 10 μM) were added thereto. After culture for 7 days, the cells were treated with the β3 adrenaline receptor activator (norepinephrine (Wako Pure Chemical Industries, Ltd.), 1 μM) for 2 hours and then recovered.
The preadipocytes (n=3) were inoculated to a 12-well plate coated with type I collagen. […]

In assay [2] the target is T1, human TGR5 (Homo sapiens, UniProt Q8TDU6).
T1 construct: expressed in transfected cells; host or cells: HEK293
T1 sequence (Q8TDU6 1-330): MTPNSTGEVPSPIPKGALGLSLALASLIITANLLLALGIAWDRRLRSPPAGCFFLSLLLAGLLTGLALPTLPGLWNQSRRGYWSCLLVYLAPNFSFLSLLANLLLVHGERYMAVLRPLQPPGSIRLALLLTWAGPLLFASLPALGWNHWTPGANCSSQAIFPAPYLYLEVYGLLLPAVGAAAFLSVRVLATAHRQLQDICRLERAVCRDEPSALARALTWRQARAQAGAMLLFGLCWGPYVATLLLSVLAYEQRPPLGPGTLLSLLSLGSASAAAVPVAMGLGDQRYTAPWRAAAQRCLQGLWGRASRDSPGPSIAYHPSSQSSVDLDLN
The experiment in a line: TGR5-activating action, CRE luciferase reporter in HEK293 cells, Reference Example 3. The format is cell-based. The conditions noted are these: material 0.001%, 12 to 18 hours; relative to control defined as 1; FIG. 22. As to the method: HEK293 cells were inoculated at 1.0×10^5 cells/well to a 24-well plate and cultured in a DMEM medium containing 5% charcoal-treated FBS for 1 day. Then, the cells were transfected with 200 ng/well of a firefly luciferase reporter vector pGL4.29[luc2P/CRE/Hygro](Promega Corp.) containing a cAMP-responsive element (CRE), 40 ng/well of a human TGR5 expression vector hTGR5 (pcDNA3.1+), and 80 ng/well of phRL-TK (Renilla luciferase vector for gene, transfection efficiency correction) using Superfect transfection reagent (Qiagen N.V.). After 3 hours, the medium was replaced with a DMEM medium containing 5% charcoal-treated […]. After another 4 hours, each material shown in Table 4 below was added thereto at a final concentration of 0.001%. 12 to 18 hours thereafter, the luciferase activities were measured using DualGlo luciferase assay system (Promega Corp.). The TGR5-activating action was evaluated by correcting the firefly luciferase activity with the Renilla luciferase activity. The TGR5-activating action was indicated by relative values to the TGR5 activity in a control defined as 1.

The test system of assay [3] is Smad3. The experiment in a line: TGF-β stimulation-responsive Smad3 phosphorylation in HEK293 cells (Western blotting), Reference Example 1. Format: cell-based. The following applies: material 0.002% (luteolin 2 μM) or 0.01% (luteolin 10 μM), 2 hours, then 0.03 μg/mL TGF-β 20 minutes, FIG. 20. As to the method:
HEK293 cells were inoculated at 3×10^5 cells/well to a 6-well dish and cultured overnight in DMEM containing 5% charcoal-treated FBS. On the next day, the medium was replaced with serum-free DMEM supplemented with each material shown in Table 2 below at a final concentration of 0.002% (luteolin: 2 μM) (low-concentration sample) or a final concentration of 0.01% (luteolin: 10 μM) (high-concentration sample). After 2 hours, 0.03 μg/mL TGF-β was added to each well, and the cells were incubated for 20 minutes. After removal of the medium, the resulting cells were washed with PBS and then recovered. The recovered cells were added with Lysis buffer and well homogenized. The cells were left to stand for 15 minutes on ice and then ultrasonically disrupted, and a supernatant centrifuged at 12,000 rpm at 4° C. for 10 minutes was obtained as a protein solution. A prepared sample containing […] of the protein and a ¼ volume of 4×SDS Sample buffer (Novagen) per lane was thermally denatured at 95° C. for 5 minutes and then used in SDS-PAGE. The protein was transferred to Immun-Blot™ PVDF Membrane (Bio-Red Laboratories, Inc.) and subjected to blocking and antibody reaction by the procedures given below, and α-Tubulin and Smad3 were detected together using ECL prime western blotting detection system (Amersham plc). […]

The nature of assay [4]: Blood (serum) analysis, Example B6. Format: in vivo, mouse. The following applies: 14th day after operation, high-fat diet. As to the method: Each C57BL/6J (SLC, male, 7 weeks old) was allowed to freely eat High-Fat Diets with 60 cal % Fat (Research Diets, Inc.) and freely drink tap water. The body weight was measured every week. After 10 weeks, the mice were divided into 4 groups such that the average body weight was equivalent among the groups (n=8). The breeding environment was set to room temperature of 23±2° C., a humidity of 55±10%, and a light period of 7 a.m. to 7 p.m.
A 1/13 diluted solution of Somnopentyl was intraperitoneally administered at 10 mL/kg body weight, and then, an analgesic pentazocine was subcutaneously injected at 1 mg/kg body weight. After shaving of the back, an osmotic pump Alzet (DURECT Corp.) filled with the agents given below was implanted to thereby continuously administer the agents.
Group 2: PPARγ activator (rosiglitazone (Rosi); 5 mg/kg body weight/day)+Smad3 inhibitor (SIS3; 5 mg/kg body weight/day)
Group 3; β3 adrenaline receptor activator (CL316,243; 0.1 mg/kg body weight/day)
Group 4; PPARγ activator (rosiglitazone (Rosi); 5 mg/kg body weight/day)+Smad3 inhibitor (SIS3; 5 mg/kg body weight/day)+β3 adrenaline receptor activator (CL316,243; 0.1 mg/kg body weight/day)
Anatomy was performed on the 14th day after the operation. Blood was collected from the abdominal vena cava under isoflurane anesthesia. Then, each tissue shown below was collected and the weight of the tissue was measured. The significant difference was tested using a multiple comparison test by the Turkey-Kramer method (different letters indicate significant difference with P<0.05).
Serum from the blood obtained by the anatomy described above was subjected to componential analysis using commercially available measurement kits described below.
Adiponectin: adiponectin ELISA kit (Otsuka Pharmaceutical Co., Ltd.)
Insulin: insulin measurement kit (Morinaga Institute of Biological Science, Inc.)
Glucose: N-Assay Glu-UL (Nittobo Medical Co., Ltd.)
Total cholesterol: N-Assay L T-CHO-H (Nittobo Medical Co., Ltd.)
Triglyceride: N-Assay TG-H (Nittobo Medical Co., Ltd.)
NEFA: NEFA-HA Test Wako (Wako Pure Chemical Industries, Ltd.)

The mark [5] stands for this setting: β3 adrenaline receptor activator 1 μM for 2 hours added to rosiglitazone 1 μM and SIS3 10 μM (7 days), FIG. 9.
Setting [6] is: Smad3 inhibitor 10 μM with rosiglitazone 10 μM (7 days) and norepinephrine 1 μM (2 hours), FIG. 8.
[7] abbreviates: PPARγ activator 1 μM added to SIS3 10 μM (7 days) and norepinephrine 1 μM (2 hours), FIG. 6.

With `Nc1nc(CC(=O)Nc2ccc(CCNC[C@H](O)c3ccccc3)cc2)cs1` [mirabegron], in assay [1] (setting [5]), the “expression level of UCP-1” value is recorded as “synergistically increased”.
On to `COc1cc2c(cc1OC)CN(C(=O)/C=C/c1c(-c3ccccc3)n(C)c3ncccc13)CC2` [SIS3, 6,7-dimethoxy-2-((2E)-3-(1-methyl-2-phenyl-1H-pyrrolo[2,3-b]pyridin-3-yl-prop-2-enoyl))-1,2,3,4-tetrahydroisoquinoline], for which, in assay [1] (setting [6]), the “expression level of UCP-1” value is recorded as “synergistically increased”.
Turning to `NC[C@H](O)c1ccc(O)c(O)c1` [norepinephrine], the “expression level of UCP-1” value in assay [1] (setting [5]) is reported as “synergistically increased”.
For `NC(=O)c1ccc(-c2nc(-c3ccc4c(c3)OCO4)c(-c3ccccn3)[nH]2)cc1` [SB431542], the “expression level of UCP-1” value in assay [1] (setting [6]) was “synergistically increased”.
On to `CCc1ccc(CCOc2ccc(CC3SC(=O)NC3=O)cc2)nc1` (stereo not drawn) [pioglitazone], for which the “expression level of UCP-1” value in assay [1] (setting [7]) is on record as “synergistically increased”.
Regarding `CCCCC[C@H](O)CC(=O)CCc1ccc(O)c(OC)c1` [gingerol], the TGR5-activating action entry in assay [2] is listed as “confirmed to have a TGR5-activating action”.
Consider `C[C@H](CCC(=O)O)[C@H]1CC[C@H]2[C@@H]3[C@H](O)C[C@@H]4C[C@H](O)CC[C@]4(C)[C@H]3C[C@H](O)[C@]12C` [cholic acid], for which the TGR5-activating action entry in assay [2] is on record as “confirmed to have a TGR5-activating action”.
As to `CN(CCOc1ccc(CC2SC(=O)NC2=O)cc1)c1ccccn1` (stereo not drawn) [rosiglitazone], the “expression level of UCP-1” value in assay [1] (setting [7]) was “synergistically increased”.
Consider `O=c1cc(-c2ccc(O)c(O)c2)oc2cc(O)cc(O)c12` [luteolin], for which the “TGF-β stimulation-responsive Smad3 hyperphosphorylation (Smad3-inhibiting action)” value in assay [3] is “confirmed to have a Smad3-inhibiting action”.
For `C[C@H](Cc1ccc2c(c1)OC(C(=O)[O-])(C(=O)[O-])O2)NC[C@H](O)c1cccc(Cl)c1.[Na+].[Na+]` [CL316,243], in assay [4], the Glucose was 274.9 ± 19.6^a mg/dl, the Insunlin is given as 3.05 ± 0.30^ab ng/ml, the NEFA is on record as 0.92 ± 0.09^a mEq/l and the Total cholesterol is listed as 151.1 ± 4.8^ac mg/dl. Also, in assay [4], the Triglyceride is 77.2 ± 7.8^ab mg/dl. Also, the Adiponectin in assay [4] (Rosi 5, SIS3 5, CL316,243 0.1 mg/kg body weight/day) is on record as 36.9 ± 6.9^ab μg/ml.
